Assay: Solid-state stability of olanzapine acetate under normal conditions
Format: physicochemical
From the text: The olanzapine acetate in solid state is a particulate material, with no or minimal tendency of reversible absorption of water from the environment, and with good handling properties.

Cc1cc2c(s1)Nc1ccccc1N=C2N1CCN(C)CC1 [olanzapine acetate]
stability under normal conditions of temperature and moisture: sufficiently stable

Reference: patent US20050272720A1 (priority 2004, published 2005)
